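Cells were grown in 96-well plates and exposed to each compound for 48 hours at five concentrations; endpoints were interpolated linearly between bracketing concentrations, or set to the highest concentration if not reached. GI50 marks 50% less growth. TGI: concentration producing complete growth inhibition.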
Key:
Experiment in all cases: NCI-60 cell line screen, 48 h; in the data active = GI50 below about 0.43 µM; inactive = the rest
[1] = test system: MDA-MB-435
[2] = test system: LOX IMVI melanoma
[3] = test system: NCI/ADR-RES ovarian
[4] = test system: SK-MEL-5 melanoma
[5] = test system: K-562 leukemia
[6] = test system: OVCAR-3 ovarian
[7] = test system: HCT-116 colon
[8] = test system: SW-620 colon
[9] = test system: NCI-H23 lung
[10] = test system: MALME-3M melanoma
[11] = test system: BT-549 breast
[12] = test system: MOLT-4 leukemia
[13] = test system: TK-10 renal
[14] = test system: COLO 205 colon
[15] = test system: HCC-2998 colon
[16] = test system: MCF7 breast
[17] = test system: OVCAR-8 ovarian
[18] = test system: U251 CNS
[19] = test system: HS 578T breast
[20] = test system: UACC-257 melanoma
[21] = test system: 786-0 renal
[22] = test system: SF-295 CNS
[23] = test system: MDA-MB-231 breast
[24] = test system: DU-145 prostate
[25] = test system: SF-268 CNS
[26] = test system: NCI-H522 lung
[27] = test system: SNB-19 CNS
[28] = test system: HT29 colon
[29] = test system: HL-60(TB) leukemia
[30] = test system: OVCAR-5 ovarian
[31] = test system: HOP-62 NSCLC
[32] = test system: RXF 393 renal
[33] = test system: A498 renal
[34] = test system: NCI-H226 lung
[35] = test system: CAKI-1 renal
[36] = test system: EKVX NSCLC
[37] = test system: OVCAR-4 ovarian
[38] = test system: UACC-62 melanoma
[39] = test system: SNB-75 CNS
[40] = test system: SN12C renal
[41] = test system: NCI-H460 lung
[42] = test system: SK-MEL-28 melanoma
[43] = test system: IGROV1 ovarian
[44] = test system: HCT-15 colon
[45] = test system: KM12 colon
[46] = test system: SK-MEL-2 melanoma
[47] = test system: PC-3 prostate
[48] = test system: ACHN renal
[49] = test system: MDA-N
[50] = test system: UO-31 renal
[51] = test system: T-47D breast
[52] = test system: HOP-92 NSCLC
[53] = test system: CCRF-CEM leukemia
[54] = test system: SR leukemia
[55] = test system: M14 melanoma
[56] = test system: SK-OV-3 ovarian
[57] = test system: SF-539 CNS
[58] = test system: RPMI-8226 leukemia
[59] = test system: A549 NSCLC

NC1=NC(=O)[C@H](Cc2c[nH]c3ccccc23)N1C(=O)OCc1ccccc1
> 100 µM: TGI [1] | TGI [2] | TGI [3] | TGI [4] | TGI [5] | TGI [6] | TGI [7] | TGI [8] | TGI [9] | TGI [10] | TGI [11] | TGI [12] | TGI [13] | TGI [14] | TGI [15] | TGI [16] | TGI [17] | TGI [18] | TGI [19] | TGI [20] | TGI [21] | TGI [22] | TGI [23] | TGI [24] | TGI [25] | TGI [26] | TGI [27] | TGI [28] | TGI [29] | TGI [30] | TGI [31] | TGI [32] | TGI [33] | TGI [34] | TGI [35] | TGI [36] | TGI [37] | TGI [38] | TGI [39] | TGI [40] | TGI [41] | TGI [42] | TGI [43] | TGI [44] | TGI [45] | TGI [46] | TGI [47] | TGI [48] | TGI [49] | TGI [50]

Nc1ccc(S(=O)(=O)c2ccc(N)cc2)cc1
inactive: GI50 [1] > 100 µM | GI50 [2] > 100 µM | GI50 [3] > 100 µM | GI50 [4] > 100 µM | GI50 [5] > 100 µM | GI50 [6] > 100 µM | GI50 [7] > 100 µM | GI50 [8] > 100 µM | GI50 [9] > 100 µM | GI50 [10] > 100 µM | GI50 [11] > 100 µM | GI50 [12] > 100 µM | GI50 [13] > 100 µM | GI50 [14] > 100 µM | GI50 [15] > 100 µM | GI50 [16] > 100 µM | GI50 [17] > 100 µM | GI50 [18] > 100 µM | GI50 [51] > 100 µM | GI50 [52] > 100 µM | GI50 [19] 68.4 µM | GI50 [53] > 100 µM | GI50 [20] > 100 µM | GI50 [21] > 100 µM | GI50 [22] > 100 µM | GI50 [23] > 100 µM | GI50 [24] > 100 µM | GI50 [25] > 100 µM | GI50 [54] > 100 µM | GI50 [26] > 100 µM | GI50 [27] > 100 µM | GI50 [28] > 100 µM | GI50 [55] > 100 µM | GI50 [29] > 100 µM | GI50 [30] > 100 µM | GI50 [31] > 100 µM | GI50 [32] > 100 µM | GI50 [33] 64.8 µM | GI50 [34] > 100 µM | GI50 [35] > 100 µM | GI50 [36] > 100 µM | GI50 [37] > 100 µM | GI50 [38] > 100 µM | GI50 [39] > 100 µM | GI50 [40] > 100 µM | GI50 [41] > 100 µM | GI50 [42] > 100 µM | GI50 [43] > 100 µM | GI50 [44] > 100 µM | GI50 [45] > 100 µM | GI50 [46] > 100 µM | GI50 [47] > 100 µM | GI50 [48] > 100 µM | GI50 [56] > 100 µM | GI50 [50] > 100 µM | GI50 [57] > 100 µM | GI50 [58] > 100 µM | GI50 [59] > 100 µM
> 100 µM: TGI [1] | TGI [2] | TGI [3] | TGI [4] | TGI [5] | TGI [6] | TGI [7] | TGI [8] | TGI [9] | TGI [10] | TGI [11] | TGI [12] | TGI [13] | TGI [14] | TGI [15] | TGI [16] | TGI [17] | TGI [18] | TGI [51] | TGI [52] | TGI [19] | TGI [53] | TGI [20] | TGI [21] | TGI [22] | TGI [23] | TGI [24] | TGI [25] | TGI [54] | TGI [26] | TGI [27] | TGI [28] | TGI [55] | TGI [29] | TGI [30] | TGI [31] | TGI [32] | TGI [33] | TGI [34] | TGI [35] | TGI [36] | TGI [37] | TGI [38] | TGI [39] | TGI [40] | TGI [41] | TGI [42] | TGI [43] | TGI [44] | TGI [45] | TGI [46] | TGI [47] | TGI [48] | TGI [56] | TGI [50] | TGI [57] | TGI [58] | TGI [59]

Reference: PubChem BioAssay (NCI)
